# Measured values: patent US20200000755A1, “TREATMENT OF INFLAMMATORY DISORDERS IN NON-HUMAN MAMMALS” (THE REGENTS OF THE UNIVERSITY OF CALIFORNIA, priority 2012, published 2020)
# Key:
# sEH = biological target: T1, sEH (Homo sapiens, UniProt P34913); assay: Activity as inhibitor of sEH (general statements); format: biochemical
# T1 sequence (P34913 1-555): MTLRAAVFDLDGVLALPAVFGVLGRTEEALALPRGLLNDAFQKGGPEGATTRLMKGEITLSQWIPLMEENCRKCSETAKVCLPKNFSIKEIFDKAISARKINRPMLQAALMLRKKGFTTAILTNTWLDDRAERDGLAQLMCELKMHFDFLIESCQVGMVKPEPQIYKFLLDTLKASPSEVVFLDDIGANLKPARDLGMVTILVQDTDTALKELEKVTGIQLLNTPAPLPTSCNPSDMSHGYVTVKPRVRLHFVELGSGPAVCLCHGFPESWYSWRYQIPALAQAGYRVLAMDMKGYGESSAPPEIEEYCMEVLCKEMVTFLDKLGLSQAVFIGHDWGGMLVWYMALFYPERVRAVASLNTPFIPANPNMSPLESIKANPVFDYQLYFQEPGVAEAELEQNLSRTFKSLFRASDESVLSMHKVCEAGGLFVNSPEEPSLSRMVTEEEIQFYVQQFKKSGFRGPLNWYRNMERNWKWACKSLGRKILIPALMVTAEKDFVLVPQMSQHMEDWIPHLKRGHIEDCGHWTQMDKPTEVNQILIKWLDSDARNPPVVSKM
# Excerpt: Derivatives of urea are transition state mimetics that form a preferred group of sEH inhibitors. […] Any particular urea derivative or other compound can be easily tested for its ability to inhibit sEH by standard assays, such as those discussed herein. The production and testing of urea and carbamate derivatives as sEH inhibitors is set forth in detail in, for example, Morisseau et al., Proc Natl Acad Sci (USA) 96:8849-8854 (1999).
# One category of these inhibitors comprises inhibitors that mimic the substrate for the enzyme. The lipid alkoxides (e.g., the 9-methoxide of stearic acid) are an exemplar of this group of inhibitors.
# COX-1 and COX-2 = settings: cited from earlier work
# Sheep sEH = Sheep sEH (Ovis aries, UniProt A0ACI6PZ20); assay: sEH inhibitor screen of domestic animals, radioactive assay, liver cytosolic preparation; format: biochemical
# [1] = horse, in vivo, iv, 0.1 mg/kg, 5 days
# [2] = Thoroughbred, horse, in vivo, iv, 0.1 mg/kg
# Canine sEH = biological target: T2, Canine sEH (Canis lupus familiaris, UniProt A0A8I3NJL8); assay: sEH inhibitor screen of canine sEH; format: biochemical
# T2 sequence (A0A8I3NJL8 1-556): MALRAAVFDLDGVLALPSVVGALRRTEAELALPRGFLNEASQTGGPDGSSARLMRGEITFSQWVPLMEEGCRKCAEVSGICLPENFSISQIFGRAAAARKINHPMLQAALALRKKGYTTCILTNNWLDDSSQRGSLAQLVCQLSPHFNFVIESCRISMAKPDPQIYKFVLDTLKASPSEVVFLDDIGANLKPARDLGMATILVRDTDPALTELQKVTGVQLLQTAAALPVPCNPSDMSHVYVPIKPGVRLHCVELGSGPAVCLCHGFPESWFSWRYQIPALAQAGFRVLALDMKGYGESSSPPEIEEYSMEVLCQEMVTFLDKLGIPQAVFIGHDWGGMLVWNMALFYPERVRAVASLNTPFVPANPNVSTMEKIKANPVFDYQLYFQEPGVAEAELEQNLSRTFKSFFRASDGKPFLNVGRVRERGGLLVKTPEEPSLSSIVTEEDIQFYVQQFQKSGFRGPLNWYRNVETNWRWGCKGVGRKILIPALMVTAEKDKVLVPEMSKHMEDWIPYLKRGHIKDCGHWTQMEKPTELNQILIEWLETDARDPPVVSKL
# [3] = Plasma concentrations and pharmacokinetics in the laminitic horse; settings: phenylbutazone 3-4 mg/kg BID PO, gabapentin 20 mg/kg BID PO
# Chain of Sheep sEH (A0ACI6PZ20 entry or part of it): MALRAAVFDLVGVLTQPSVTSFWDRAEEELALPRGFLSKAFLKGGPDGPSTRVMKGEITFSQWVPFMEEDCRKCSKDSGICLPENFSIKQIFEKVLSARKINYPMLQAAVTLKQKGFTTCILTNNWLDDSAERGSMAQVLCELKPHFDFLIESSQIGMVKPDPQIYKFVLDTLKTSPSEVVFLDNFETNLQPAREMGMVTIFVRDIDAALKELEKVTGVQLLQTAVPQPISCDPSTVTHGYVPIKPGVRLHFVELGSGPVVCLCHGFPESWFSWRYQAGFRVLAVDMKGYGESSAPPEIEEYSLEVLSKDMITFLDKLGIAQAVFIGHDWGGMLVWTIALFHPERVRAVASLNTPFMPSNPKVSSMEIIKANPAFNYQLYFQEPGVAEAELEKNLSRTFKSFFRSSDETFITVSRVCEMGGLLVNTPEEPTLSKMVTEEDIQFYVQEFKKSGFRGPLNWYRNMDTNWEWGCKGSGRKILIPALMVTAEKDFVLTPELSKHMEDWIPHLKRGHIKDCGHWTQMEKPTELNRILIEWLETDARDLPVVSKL
compound,measurement,setting,value
"CCCCCCCCCCCCNC(=O)NC12CC3CC(CC(C3)C1)C2 [ADU, N-Adamantyl-N′-dodecyl urea]",activity on sEH,sEH,particularly high activity on sEH
CC(=O)Oc1ccccc1C(=O)O [Aspirin],COX-2 (IC50)/COX-1 (IC50) ratio,COX-1 and COX-2,0.32
"CS(=O)(=O)N1CCC(NC(=O)Nc2ccc(OC(F)(F)F)cc2)CC1 [compound 1709, 1-(1-methylsulfonyl-piperidin-4-yl)-3-(4-trifluoromethoxy-phenyl)-urea]",IC50,Sheep sEH,0.03 µM
"O=C(Nc1ccc(OC(F)(F)F)cc1)N[C@H]1CC[C@H](Oc2ccc(C(=O)O)cc2)CC1 [compound 1728, trans-4-{4-[3-(4-Trifluoromethoxy-phenyl)-ureido]-cyclohexyloxy}-benzoic acid]",adverse effects in clinical exams and blood work,[1],No adverse effects were observed
same,"daily plasma concentration, peak (did not reach)",[2],< 2.5 µM
same,"daily plasma concentration, trough (fell below on one occasion in the first day)",[2],below 30 nM
"CCS(=O)(=O)N1CCC(NC(=O)Nc2ccc(OC(F)(F)F)cc2)CC1 [compound 2213, 1-(1-ethylsulfonyl-piperidin-4-yl)-3-(4-trifluoromethoxy-phenyl)-urea]",IC50,Sheep sEH,0.033 µM
"O=C(Nc1ccc(OC(F)(F)F)cc1)NC1CCN(C(=O)C2CC2)CC1 [compound 2214, 1-(1-(cyclopropanecarbonyl)piperidin-4-yl)-3-(4-(trifluoromethoxy)phenyl)urea]",IC50,Sheep sEH,0.018 µM
"CS(=O)(=O)NC(=O)c1ccc(O[C@H]2CC[C@H](NC(=O)Nc3ccc(OC(F)(F)F)cc3)CC2)cc1 [compound 2728, N-(methylsulfonyl)-4-(trans-4-(3-(4-trifluoromethoxy-phenyl)-ureido)-cyclohexyloxy)-benzamide]",IC50,Canine sEH,0.1 µM
"O=C(Nc1ccccc1F)N[C@H]1CC[C@H](Oc2ccc(C(=O)O)cc2)CC1 [compound 2736, 4-(trans-4-(3-(2-fluorophenyl)-ureido)-cyclohexyloxy)-benzoic acid]",IC50,Canine sEH,0.039 µM
"Cc1oc(=O)oc1COC(=O)c1ccc(O[C@H]2CC[C@H](NC(=O)Nc3ccc(OC(F)(F)F)cc3)CC2)cc1 [compound 2796, (5-methyl-2-oxo-1,3-dioxol-4-yl)methyl 4-((1r,4r)-4-(3-(4-(trifluoromethoxy)-phenyl)-ureido)-cyclohexyloxy)-benzoate]",IC50,Canine sEH,0.038 µM
"O=C(Nc1ccc(Oc2ccc(C(=O)O)cc2)cc1)Nc1ccc(OC(F)(F)F)cc1 [compound 2803, 4-(4-(3-(4-(trifluoromethoxy)-phenyl)-ureido)-phenoxy)-benzoic acid]",IC50,Canine sEH,0.042 µM
"O=C(Nc1ccc(OC(F)F)cc1)N[C@H]1CC[C@H](Oc2ccc(C(=O)O)cc2)CC1 [compound 2805, 4-(trans-4-(3-(4-(difluoromethoxy)-phenyl)-ureido)-cyclohexyloxy)-benzoic acid]",IC50,Canine sEH,0.019 µM
"O=C(Nc1ccc(OC(F)(F)F)cc1)N[C@H]1CC[C@H](Oc2ccc(-c3nnn[nH]3)cc2)CC1 [compound 2806, 1-(trans-4-(4-(1H-tetrazol-5-yl)-phenoxy)-cyclohexyl)-3-(4-(trifluoromethoxy)-phenyl)-urea]",IC50,Canine sEH,< 0.001 µM
"O=C(Nc1ccc(OC(F)(F)F)cc1)Nc1ccc(Oc2ccc(C(=O)O)cc2)cc1F [compound 2807, 4-(3-fluoro-4-(3-(4-(trifluoromethoxy)-phenyl)-ureido)-phenoxy)-benzoic acid]",IC50,Canine sEH,0.014 µM
NCC1(CC(=O)O)CCCCC1 [gabapentin],highest measured plasma concentration,[3],18 µM
COc1ccc2c(c1)c(CC(=O)O)c(C)n2C(=O)c1ccc(Cl)cc1 [indomethacin],COX-2 (IC50)/COX-1 (IC50) ratio,COX-1 and COX-2,33
